Columns and labels:
C. albicans CaCi-2 = assay: Primary screen and dose-response retest: CaCi-2 with 8 µg/mL fluconazole (Alamar Blue growth); type: cell-based, Candida albicans; details: Candida albicans, CACI2; 37 °C, 48 hours, with test compound and 8 µg/mL (26 µM) fluconazole; average of at least three independent experiments in duplicate; inactive = negligible activity at concentrations below 26 µM
Protocol: All of the compounds prepared above were evaluated for their ability to chemosensitize the C. albicans test strains CaCi-2 and CaCi-8 towards fluconazole. […] The DMSO/fluconazole combination served as an internal control.
Protocols for cellular assays
Primary screen and dose-response retest: CaCi-2 with 8 µg/mL fluconazole […]
Clear, flat-bottom, black, 384-well plates (Corning Catalog no. 3712BC; Lot no. […]
DMSO; Fluconazole (Sequoia Research Products Ltd) 2 mg/mL stock solution in PBS; […]
(AG Scientific Catalog no. DAL 1100; Lot no.151016SA); PBS without calcium and magnesium (Cellgro Catalog no. 21-040-CV)
(§1) Synthetic defined growth medium
(§2) RPMI 1640 medium, (powder without sodium bicarbonate; Invitrogen Catalog no. […]
no. 028KO760); Glucose 40% (w/v) in water (Sigma Catalog no. G-5400); MOPS buffer […]
1) Prepare 1× RPMI medium by dissolving 10.4 grams powdered medium in 800 […]
(§3) 2) Add 34.52 g MOPS. While stirring, adjust pH to 7.0 with 10 N NaOH.
(§4) 3) Add 10 mL uridine solution, 50 mL glucose solution, adjust final volume to 1000 […]
Test Strain: C. albicans CaCi-2
1) Inoculate 500 µL of strain from cryopreserved stock into a 250 mL shaker flask containing 30 mL growth medium. Shake at 30 °C overnight.
2) Read OD 600 of 1 mL fungal culture in a cuvette using a standard optical density reader (Eppendorf BioPhotometer Plus), with growth medium as a background […]
3) Dilute to desired volume of fungal inoculums according to the following formula:
(1/OD measured) × (desired final volume of inoculum) × 0.3 = volume of fungal culture (µL) to add to desired volume of growth medium. When added to media in wells, this yields a calculated starting OD of the fungal inoculum of 0.00015.
1) Add fluconazole stock solution to fungal inoculum to achieve a final concentration […]
2) Add Pen/Strep at 0.1 mL per 10 mL media (1% v/v).
3) Use a Thermo Combi nL to dispense 20 µL/well of assay media into all wells.
4) Pin 25 nL test compound from compound plates into assay plates using CyBi- […]
5) Dispense 20 µL/well of culture into the assay media in all wells.
6) Incubate plates in a humidified (90% humidity) Liconic incubator at 37 °C without […]
7) Dilute Alamar Blue Reagent 1:40 in Ca/Mg-free PBS.
8) To all plates, add 5 µL/well of the diluted Alamar to a final dilution factor of 1:200.
9) Incubate the plates for an additional 2 hours.
10) Read the relative fluorescence intensity (RFU) of wells on a standard plate reader as a measure of relative fungal growth. EnVision (Perkin Elmer) plate reader setup: Ex 544 nm, Em 590 nm, bandwidth 12 nm, top read. […]

[1] = test system: calcineurin-dependent signaling pathway; assay: Yeast-reporter assay, calcineurin-dependent signaling pathway; type: cell-based; details: Saccharomyces cerevisiae
C. albicans CaCi-8 = assay: Secondary assay 1: CaCi-8 with 8 µg/mL fluconazole (Alamar Blue growth); type: cell-based, Candida albicans; details: Candida albicans, CACI8, 48 h, read-out: CaCi-8 IC50
Protocol: All of the compounds prepared above were evaluated for their ability to chemosensitize the C. albicans test strains CaCi-2 and CaCi-8 towards fluconazole. […] The DMSO/fluconazole combination served as an internal control. […]
(1/OD measured) × (desired final volume of inoculum) × 0.3 = volume of fungal culture (µL) to add to desired volume of growth medium. When added to media in wells, this yields a calculated starting OD of the fungal inoculum of 0.00015. […]
3) Use a Thermo Combi nL to dispense 20 µL/well of assay media into all wells. […]
EnVision (Perkin Elmer) plate reader setup: Ex 544 nm, Em 590 nm, bandwidth 12 nm, top read.
Secondary assay 1: CaCi-8 with 8 µg/mL fluconazole […]
35808016); geldanamycin (AG Scientific Catalog no. […]
PBS w/o calcium and magnesium (Cellgro Catalog no. 21-040-CV)
as §1, §2
no. 028K0760); glucose 40% (w/v) in water (Sigma Catalog no. G-5400); MOPS buffer […]
1) Prepare 1× RPMI medium by dissolving 10.4 g powdered medium in 800 mL […]
as §3, §4
Test strain: C. albicans CaCi-8
1) Inoculate 500 µL of strain from cryopreserved stock into a 250 mL shaker flask containing 30 mL growth medium. Shake at 30 °C overnight (16 hours).
2) Read OD 600 of 1 mL of fungal culture in a cuvette using a standard optical density reader (Eppendorf BioPhotometer Plus), with growth medium as a […]
3) Dilute to a desired volume of fungal inoculum according to following formula: […]
1) Add fluconazole stock solution to fungal inoculum to achieve 8 µg/mL.
2) Add Pen/Strep to media to 1% concentration.
4) Dispense geldanamycin in positive control wells using Thermo Combi nL for a final concentration of 3 µM.
5) Then, pin 100 nL of test compound from compound plates into assay plates using a CyBi-Well pin tool.
6) Dispense 20 µL/well of culture into the assay media in all wells.
7) Incubate the plates in a humidified (90% humidity) Liconic incubator at 37 °C without agitation for 48 hours.
8) Dilute Alamar Blue 1:40 in Ca/Mg-free PBS.
9) To all plates, add 5 µL/well of the diluted Alamar Blue to plates to a final dilution […]
10) Incubate the plates for 2 hours. […]

Structure (SMILES): COC(=O)Cn1nc(-c2cccc(OC)c2)c2ccccc21 [Compound 36]
- IC50 (C. albicans CaCi-2): 0.7 ± 0.3 µM
- IC50 [1]: > 26 µM
- IC50 (C. albicans CaCi-8): 1.5 ± 0.6 µM
